Assay [1] deals with T1, CD73 (Homo sapiens (Human), UniProt P21589). The class given is biochemical. The conditions noted are these: 1 mM NaH2PO4 in enzyme buffer, CD73 0.3 nM, AMP 15 uM.
The target in assay [2] is T1, CD73. In words: MDA-MB-231 Cell Based CD73 Activity Assay (DMEM). The conditions noted are these: MDA-MB-231-GFP cells, DMEM medium with 10% human plasma, 200 uM AMP.

T1 sequence (P21589 27-574): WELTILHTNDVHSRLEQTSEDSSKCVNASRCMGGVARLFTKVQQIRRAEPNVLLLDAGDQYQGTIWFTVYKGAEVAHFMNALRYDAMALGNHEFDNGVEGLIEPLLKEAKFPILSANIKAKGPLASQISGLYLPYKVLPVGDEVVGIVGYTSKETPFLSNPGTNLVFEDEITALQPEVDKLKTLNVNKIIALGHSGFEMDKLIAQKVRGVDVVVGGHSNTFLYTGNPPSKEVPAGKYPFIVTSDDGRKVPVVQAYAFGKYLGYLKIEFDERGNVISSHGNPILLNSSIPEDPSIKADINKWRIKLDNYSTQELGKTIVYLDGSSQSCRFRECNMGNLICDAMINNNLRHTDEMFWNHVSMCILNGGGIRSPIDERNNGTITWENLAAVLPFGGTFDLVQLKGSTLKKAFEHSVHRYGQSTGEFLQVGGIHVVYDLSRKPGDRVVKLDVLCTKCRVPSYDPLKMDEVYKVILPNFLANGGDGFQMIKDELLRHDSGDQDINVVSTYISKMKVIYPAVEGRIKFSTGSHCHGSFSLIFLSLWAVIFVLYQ

Turning to `O=c1[nH]cc(-c2cc([C@H]3C[C@@H]3c3ccc4cnn(CC(F)(F)F)c4c3)c3ncc(F)n3n2)c(=O)[nH]1` [Example 319, 5-(3-fluoro-8-((1S,2S)-2-(1-(2,2,2-trifluoroethyl)-1H-indazol-6-yl)cyclopropyl)imidazo[1,2-b]pyridazin-6-yl)pyrimidine-2,4(1H,3H)-dione], in assay [1], 0.34 nM corresponded to half-maximal inhibition (IC50). The compound further had a concentration for a half-maximal effect (EC50) in assay [2] of 0.07 nM.

In turn, `CC1(C)CN(c2cc(-c3c[nH]c(=O)[nH]c3=O)nn3ccnc23)CC(F)(F)C1` [Example 320, 5-(8-(3,3-difluoro-5,5-dimethylpiperidin-1-yl)imidazo[1,2-b]pyridazin-6-yl)pyrimidine-2,4(1H,3H)-dione] displayed an IC50 in assay [1] above 250 nM. Further, in assay [2], the response was half-maximal at 1150 nM (EC50).

In turn, `O=c1[nH]cc(-c2cc([C@H]3C[C@@H]3c3ccc4ncn(CC(F)(F)F)c4c3)c3nccn3n2)c(=O)[nH]1` [Example 322, 5-(8-((1S,2S)-2-(1-(2,2,2-trifluoroethyl)-1H-benzo[d]imidazol-6-yl)cyclopropyl)imidazo[1,2-b]pyridazin-6-yl)pyrimidine-2,4(1H,3H)-dione] displayed a 50% inhibitory concentration (IC50) in assay [1] of 0.8 nM. Moreover, the response in assay [2] was half-maximal at 0.07 nM (EC50).

For `O=c1[nH]cc(-c2cc([C@H]3C[C@@H]3c3ccc4ncn(CC(F)(F)F)c4c3)c3ncc(F)n3n2)c(=O)[nH]1` [Example 323, 5-(3-fluoro-8-((1S,2S)-2-(1-(2,2,2-trifluoroethyl)-1H-benzo[d]imidazol-6-yl)cyclopropyl)imidazo[1,2-b]pyridazin-6-yl)pyrimidine-2,4(1H,3H)-dione], the 50% inhibitory concentration (IC50) in assay [1] was 0.51 nM. In assay [2], this compound registered a half-maximal effective concentration (EC50) of 0.06 nM.

For `O=c1[nH]cc(-c2cc(N3CC(F)(F)C4(CCC4)C3)c3nccn3n2)c(=O)[nH]1` [Example 325, 5-(8-(8,8-difluoro-6-azaspiro[3.4]octan-6-yl)imidazo[1,2-b]pyridazin-6-yl)pyrimidine-2,4(1H,3H)-dione], half-maximal inhibition in assay [1] (IC50) required 1.7 nM. The compound further returned a 50% effective concentration (EC50) in assay [2] of 11.2 nM.

`CC1(C)CN(c2cc(-c3c[nH]c(=O)[nH]c3=O)nn3cc(Cl)nc23)CC1(F)F` [Example 328, 5-(2-chloro-8-(3,3-difluoro-4,4-dimethylpyrrolidin-1-yl)imidazo[1,2-b]pyridazin-6-yl)pyrimidine-2,4(1H,3H)-dione] returned an IC50 in assay [1] of 3.68 nM. The compound also registered an EC50 in assay [2] of 40.5 nM.

As for `O=c1[nH]cc(-c2cc([C@H]3C[C@@H]3c3ccc4c(C(F)(F)F)nn(CC(F)(F)F)c4c3)c3ncc(F)n3n2)c(=O)[nH]1` [Example 329, 5-(3-fluoro-8-((1S,2S)-2-(1-(2,2,2-trifluoroethyl)-3-(trifluoromethyl)-1H-indazol-6-yl)cyclopropyl)imidazo[1,2-b]pyridazin-6-yl)pyrimidine-2,4(1H,3H)-dione], in assay [1], it took 0.64 nM to reach half-maximal inhibition (IC50). In addition, a half-maximal response in assay [2] (EC50) required 0.71 nM.

For `O=c1[nH]cc(-c2cc(N3C[C@H](Oc4cc(C(F)(F)F)ccn4)C(F)(F)C3)c3nccn3n2)c(=O)[nH]1` [Example 330, (S)-5-(8-(3,3-difluoro-4-((4-(trifluoromethyl)pyridin-2-yl)oxy)pyrrolidin-1-yl)imidazo[1,2-b]pyridazin-6-yl)pyrimidine-2,4(1H,3H)-dione], it took 1.07 nM to reach half-maximal inhibition in assay [1] (IC50). In addition, the concentration giving a half-maximal response (EC50) in assay [2] was determined as 0.51 nM.

Consider `O=c1[nH]cc(-c2cc(N3C[C@@H](Oc4cc(C(F)(F)F)ccn4)C(F)(F)C3)c3nccn3n2)c(=O)[nH]1` [Example 331, (R)-5-(8-(3,3-difluoro-4-((4-(trifluoromethyl)pyridin-2-yl)oxy)pyrrolidin-1-yl)imidazo[1,2-b]pyridazin-6-yl)pyrimidine-2,4(1H,3H)-dione], for which 16.2 nM corresponded to half-maximal inhibition in assay [1] (IC50). Further, the response in assay [2] was half-maximal at 11.1 nM (EC50).

In assay [1], `O=c1[nH]cc(-c2cc(N3C[C@@H](Oc4ccc(OC(F)F)cn4)C(F)(F)C3)c3nccn3n2)c(=O)[nH]1` [Example 332, (R)-5-(8-(4-((5-(difluoromethoxy)pyridin-2-yl)oxy)-3,3-difluoropyrrolidin-1-yl)imidazo[1,2-b]pyridazin-6-yl)pyrimidine-2,4(1H,3H)-dione] returned an IC50 of 8.61 nM. In addition, in assay [2], a half-maximal effect (EC50) was put at 26.9 nM.

`O=c1[nH]cc(-c2cc(N3C[C@H](Oc4ccc(OC(F)F)cn4)C(F)(F)C3)c3nccn3n2)c(=O)[nH]1` [Example 333, (S)-5-(8-(4-((5-(difluoromethoxy)pyridin-2-yl)oxy)-3,3-difluoropyrrolidin-1-yl)imidazo[1,2-b]pyridazin-6-yl)pyrimidine-2,4(1H,3H)-dione] came in with an IC50 in assay [1] of 0.89 nM. Also, in assay [2], a half-maximal effect (EC50) was put at 1.91 nM.

In assay [1], `O=c1[nH]cc(-c2cc(N3C[C@@H](Oc4ccc(OC(F)(F)F)cn4)C(F)(F)C3)c3nccn3n2)c(=O)[nH]1` [Example 334, (R)-5-(8-(3,3-difluoro-4-((5-(trifluoromethoxy)pyridin-2-yl)oxy)pyrrolidin-1-yl)imidazo[1,2-b]pyridazin-6-yl)pyrimidine-2,4(1H,3H)-dione] yielded an IC50 of 24.4 nM. The compound also showed an EC50 in assay [2] of 118 nM.

Turning to `O=c1[nH]cc(-c2cc(N3C[C@H](Oc4ccc(OC(F)(F)F)cn4)C(F)(F)C3)c3nccn3n2)c(=O)[nH]1` [Example 335, (S)-5-(8-(3,3-difluoro-4-((5-(trifluoromethoxy)pyridin-2-yl)oxy)pyrrolidin-1-yl)imidazo[1,2-b]pyridazin-6-yl)pyrimidine-2,4(1H,3H)-dione], the IC50 in assay [1] was found to be 2.8 nM. In assay [2], this compound came in with a 50% effective concentration (EC50) of 6.77 nM.

In assay [1], `O=c1[nH]cc(-c2cc(N3C[C@@H](Oc4ccc(OC(F)(F)C(F)(F)F)cn4)C(F)(F)C3)c3nccn3n2)c(=O)[nH]1` [Example 336, (R)-5-(8-(3,3-difluoro-4-((5-(perfluoroethoxy)pyridin-2-yl)oxy)pyrrolidin-1-yl)imidazo[1,2-b]pyridazin-6-yl)pyrimidine-2,4(1H,3H)-dione] registered an IC50 of 34.9 nM. Besides, the 50% effective concentration (EC50) in assay [2] was above 250 nM.

For the compound `O=c1[nH]cc(-c2cc(N3C[C@H](Oc4ccc(OC(F)(F)C(F)(F)F)cn4)C(F)(F)C3)c3nccn3n2)c(=O)[nH]1` [Example 337, (S)-5-(8-(3,3-difluoro-4-((5-(perfluoroethoxy)pyridin-2-yl)oxy)pyrrolidin-1-yl)imidazo[1,2-b]pyridazin-6-yl)pyrimidine-2,4(1H,3H)-dione], 3.29 nM corresponded to half-maximal inhibition in assay [1] (IC50). In assay [2], the EC50 turned out to be 15.9 nM.

The compound `N#Cc1ccc(O[C@@H]2CN(c3cc(-c4c[nH]c(=O)[nH]c4=O)nn4ccnc34)CC2(F)F)nc1` [Example 338, (R)-6-((1-(6-(2,4-dioxo-1,2,3,4-tetrahydropyrimidin-5-yl)imidazo[1,2-b]pyridazin-8-yl)-4,4-difluoropyrrolidin-3-yl)oxy)nicotinonitrile] gave an IC50 in assay [1] of 10.9 nM. Besides, the EC50 in assay [2] turned out to be 72.8 nM.

As to `N#Cc1ccc(O[C@H]2CN(c3cc(-c4c[nH]c(=O)[nH]c4=O)nn4ccnc34)CC2(F)F)nc1` [Example 339, (S)-6-((1-(6-(2,4-dioxo-1,2,3,4-tetrahydropyrimidin-5-yl)imidazo[1,2-b]pyridazin-8-yl)-4,4-difluoropyrrolidin-3-yl)oxy)nicotinonitrile], inhibition in assay [1] was half-maximal at 0.91 nM (IC50). Also, in assay [2], the response was half-maximal at 2.6 nM (EC50).

As to `O=c1[nH]cc(-c2cc(N3CC(Oc4cnc(C(F)(F)F)cn4)C(F)(F)C3)c3nccn3n2)c(=O)[nH]1` (centres unmarked) [Example 340, 5-(8-(3,3-difluoro-4-((5-(trifluoromethyl)pyrazin-2-yl)oxy)pyrrolidin-1-yl)imidazo[1,2-b]pyridazin-6-yl)pyrimidine-2,4(1H,3H)-dione], the half-inhibitory concentration (IC50) in assay [1] was found to be 1.48 nM. The compound further displayed a half-maximal effective concentration (EC50) in assay [2] of 19 nM.

Compound `O=c1[nH]cc(-c2cc(N3C[C@H](Oc4cc(C(F)F)ccn4)C(F)(F)C3)c3nccn3n2)c(=O)[nH]1` [Example 341, (S)-5-(8-(4-((4-(difluoromethyl)pyridin-2-yl)oxy)-3,3-difluoropyrrolidin-1-yl)imidazo[1,2-b]pyridazin-6-yl)pyrimidine-2,4(1H,3H)-dione] had a half-maximal inhibitory concentration (IC50) in assay [1] of 0.43 nM. The compound further came in with an EC50 in assay [2] of 0.53 nM.

Take `N#Cc1ccnc(O[C@H]2CN(c3cc(-c4c[nH]c(=O)[nH]c4=O)nn4ccnc34)CC2(F)F)c1` [Example 342, 2-[(3S)-1-[6-(2,4-dioxo-1H-pyrimidin-5-yl)imidazo[1,2-b]pyridazin-8-yl]-4,4-difluoro-pyrrolidin-3-yl]oxypyridine-4-carbonitrile]: inhibition in assay [1] was half-maximal at 1.4 nM (IC50). The compound also yielded an EC50 in assay [2] of 3.82 nM.

Compound `O=c1[nH]cc(-c2cc(N3CC(OC(F)F)C4(CC4)C3)c3nccn3n2)c(=O)[nH]1` (centres unmarked) [Example 343, 5-[8-[7-(difluoromethoxy)-5-azaspiro[2.4]heptan-5-yl]imidazo[1,2-b]pyridazin-6-yl]-1H-pyrimidine-2,4-dione] gave an IC50 in assay [1] of 48.2 nM. In assay [2], this compound registered an EC50 of 129 nM.

Take `O=c1[nH]cc(-c2cc(N3CC(O)C4(CC4)C3)c3nccn3n2)c(=O)[nH]1` (centres unmarked) [Example 344, 5-[8-(7-hydroxy-5-azaspiro[2.4]heptan-5-yl)imidazo[1,2-b]pyridazin-6-yl]-1H-pyrimidine-2,4-dione]: the IC50 in assay [1] stood at 38.4 nM. In addition, a half-maximal effect in assay [2] (EC50) was put at 97 nM.

For the compound `O=c1[nH]cc(-c2cc(N3CC(Oc4ccc(C(F)(F)F)cn4)C4(CC4)C3)c3nccn3n2)c(=O)[nH]1` (centres unmarked) [Example 345, 5-[8-[7-[[5-(trifluoromethyl)-2-pyridyl]oxy]-5-azaspiro[2.4]heptan-5-yl]imidazo[1,2-b]pyridazin-6-yl]-1H-pyrimidine-2,4-dione], 10.2 nM corresponded to half-maximal inhibition in assay [1] (IC50). Moreover, in assay [2], the half-maximal effective concentration (EC50) came to 98 nM.

`O=c1[nH]cc(-c2cc(N3CC(c4ccccc4)C(F)(F)C3)c3nccn3n2)c(=O)[nH]1` (centres unmarked) [Example 346, 5-(8-(3,3-difluoro-4-phenylpyrrolidin-1-yl)imidazo[1,2-b]pyridazin-6-yl)pyrimidine-2,4(1H,3H)-dione] registered a 50% inhibitory concentration (IC50) in assay [1] of 6.08 nM. Further, in assay [2], the EC50 is 24.4 nM.

Compound `O=c1[nH]cc(-c2cc(N3CC[C@@H](OC(F)F)C3)c3nccn3n2)c(=O)[nH]1` [Example 347, (R)-5-(8-(3-(difluoromethoxy)pyrrolidin-1-yl)imidazo[1,2-b]pyridazin-6-yl)pyrimidine-2,4(1H,3H)-dione] came in with a half-inhibitory concentration (IC50) in assay [1] of 4.39 nM. The same compound displayed an EC50 in assay [2] of 11.9 nM.

Source of the values: US20240043427A1 (Gilead Sciences, Inc., priority 2020, published 2024).
